Experiments:
Assay in all cases: Test E postemergence
dayflower = type: in vivo, Commelina virginica
Outline: (§1)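 Compound in a non-phytotoxic solvent mixture with surfactant was applied preemergence to seeds in silt loam soil, or postemergence to plants 2 to 18 cm tall grown in peat-based potting medium. Plants were kept in a greenhouse for 14 to 21 days, then rated visually against untreated controls on a 0 (no effect) to 100 (complete control) scale.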

fall panicum = type: in vivo, Panicum dichotomiflorum
Outline: as §1

Italian ryegrass = type: in vivo, Lolium multiflorum
Outline: as §1

hairy beggarticks = type: in vivo, Bidens pilosa
Outline: as §1

[1] = tested on: waterhemp_RES2 (ALS & HPPD resistant common waterhemp); type: in vivo, Amaranthus rudis; settings: for pest or weed control at 31 g/ha / pest or weed control at 62 g/ha / pest or weed control at 125 g/ha / pest or weed control at 16 g/ha: Amaranthus tuberculatus, post-emergence, read-out: Plant response rating, Waterhemp_RES2
Outline: as §1

[2] = tested on: waterhemp_RES1 (ALS & Triazine resistant common waterhemp); type: in vivo, Amaranthus rudis
Outline: as §1

waterhemp = type: in vivo, Amaranthus rudis
Outline: as §1

[3] = Postemergence, 31 g ai/ha, scale 0 to 100
[4] = Postemergence, 62 g ai/ha, scale 0 to 100
[5] = Postemergence, 125 g ai/ha, scale 0 to 100
[6] = postemergence, 16 g ai/ha, scale 0 to 100, 0 no effect, 100 complete control
[7] = Commelina virginica, post-emergence, Postemergence, 31 g ai/ha, scale 0 to 100, read-out: Plant response rating, Dayflower, VA
[8] = Commelina virginica, post-emergence, Postemergence, 62 g ai/ha, scale 0 to 100, read-out: Plant response rating, Dayflower, VA
[9] = Commelina virginica, post-emergence, Postemergence, 125 g ai/ha, scale 0 to 100, read-out: Plant response rating, Dayflower, VA
[10] = Commelina virginica, post-emergence, postemergence, 16 g ai/ha, scale 0 to 100, 0 no effect, 100 complete control, read-out: Plant response rating, Dayflower, VA
[11] = Panicum dichotomiflorum, post-emergence, Postemergence, 31 g ai/ha, scale 0 to 100, read-out: Plant response rating, Panicum, Fall
[12] = Panicum dichotomiflorum, post-emergence, Postemergence, 62 g ai/ha, scale 0 to 100, read-out: Plant response rating, Panicum, Fall
[13] = Panicum dichotomiflorum, post-emergence, Postemergence, 125 g ai/ha, scale 0 to 100, read-out: Plant response rating, Panicum, Fall
[14] = Panicum dichotomiflorum, post-emergence, postemergence, 16 g ai/ha, scale 0 to 100, 0 no effect, 100 complete control, read-out: Plant response rating, Panicum, Fall
[15] = Lolium multiflorum, post-emergence, Postemergence, 62 g ai/ha, scale 0 to 100, read-out: Plant response rating, Ryegrass, Italian
[16] = Lolium multiflorum, post-emergence, Postemergence, 125 g ai/ha, scale 0 to 100, read-out: Plant response rating, Ryegrass, Italian
[17] = Lolium multiflorum, post-emergence, postemergence, 16 g ai/ha, scale 0 to 100, 0 no effect, 100 complete control, read-out: Plant response rating, Ryegrass, Italian
[18] = Bidens pilosa, post-emergence, Postemergence, 31 g ai/ha, scale 0 to 100, read-out: Plant response rating, Beggarticks
[19] = Bidens pilosa, post-emergence, Postemergence, 62 g ai/ha, scale 0 to 100, read-out: Plant response rating, Beggarticks
[20] = Bidens pilosa, post-emergence, Postemergence, 125 g ai/ha, scale 0 to 100, read-out: Plant response rating, Beggarticks
[21] = Bidens pilosa, post-emergence, postemergence, 16 g ai/ha, scale 0 to 100, 0 no effect, 100 complete control, read-out: Plant response rating, Beggarticks
[22] = Amaranthus tuberculatus, post-emergence, Postemergence, 31 g ai/ha, scale 0 to 100, read-out: Plant response rating, Waterhemp
[23] = Amaranthus tuberculatus, post-emergence, Postemergence, 62 g ai/ha, scale 0 to 100, read-out: Plant response rating, Waterhemp
[24] = Amaranthus tuberculatus, post-emergence, Postemergence, 125 g ai/ha, scale 0 to 100, read-out: Plant response rating, Waterhemp
[25] = Amaranthus tuberculatus, post-emergence, postemergence, 16 g ai/ha, scale 0 to 100, 0 no effect, 100 complete control, read-out: Plant response rating, Waterhemp

For `Clc1cnc(Oc2cccc(Cl)c2-n2cc(I)cn2)nc1` [Compound 181], the “Plant response rating, Dayflower, VA” value (dayflower; [3]) was 30, the “Plant response rating, Dayflower, VA” value (dayflower; [4]) was 40 and the “Plant response rating, Dayflower, VA” value (dayflower; [5]) was 60. The “Plant response rating, Dayflower, VA” value (dayflower; [6]) was 20, the “Plant response rating, Panicum, Fall” value (fall panicum; [3]) was 20 and the “Plant response rating, Panicum, Fall” value (fall panicum; [4]) was 50. The “Plant response rating, Panicum, Fall” value (fall panicum; [5]) was 30, the “Plant response rating, Panicum, Fall” value (fall panicum; [6]) was 20 and the “Plant response rating, Ryegrass, Italian” value (Italian ryegrass; [3]) was 5. The “Plant response rating, Ryegrass, Italian” value (Italian ryegrass; [4]) was 10, the “Plant response rating, Ryegrass, Italian” value (Italian ryegrass; [5]) was 20 and the “Plant response rating, Ryegrass, Italian” value (Italian ryegrass; [6]) was 5. For the same molecule, the “Plant response rating, Beggarticks” value (hairy beggarticks; [3]) was 40, the “Plant response rating, Beggarticks” value (hairy beggarticks; [4]) was 50 and the “Plant response rating, Beggarticks” value (hairy beggarticks; [5]) was 60. For the same molecule, the “Plant response rating, Beggarticks” value (hairy beggarticks; [6]) was 40, the “Plant response rating, Waterhemp_RES2” value [1, 3] was 95 and the “Plant response rating, Waterhemp_RES2” value [1, 4] was 98. The “Plant response rating, Waterhemp_RES2” value [1, 5] was 100, the “Plant response rating, Waterhemp_RES2” value [1, 6] was 85 and the “Plant response rating, Waterhemp_RES1” value [2, 3] was 95. The “Plant response rating, Waterhemp_RES1” value [2, 4] was 90, the “Plant response rating, Waterhemp_RES1” value [2, 5] was 95 and the “Plant response rating, Waterhemp_RES1” value [2, 6] was 90. The “Plant response rating, Waterhemp” value (waterhemp; [3]) was 95, the “Plant response rating, Waterhemp” value (waterhemp; [4]) was 95 and the “Plant response rating, Waterhemp” value (waterhemp; [5]) was 98. For the same molecule, the “Plant response rating, Waterhemp” value (waterhemp; [6]) was 65.

Work on `N#Cc1cccc(Oc2ncc(Cl)cn2)c1-n1cc(OCC(F)(F)F)cn1` [Compound 274, 3-[(5-chloro-2-pyrimidinyl)oxy]-2-[4-(2,2,2-trifluoroethoxy)-1H-pyrazol-1-yl]benzonitrile] yielded a pest or weed control at 31 g/ha (dayflower; [7]) of 20%, a pest or weed control at 62 g/ha (dayflower; [8]) of 40% and a pest or weed control at 125 g/ha (dayflower; [9]) of 70%. It also gave a pest or weed control at 8 g/ha (dayflower; Commelina virginica, post-emergence, postemergence, 8 g ai/ha, scale 0 to 100, 0 no effect, 100 complete control, read-out: Plant response rating, Dayflower, VA) of 5%, a pest or weed control at 16 g/ha (dayflower; [10]) of 10% and a pest or weed control at 31 g/ha (fall panicum; [11]) of 20%. It also gave a pest or weed control at 62 g/ha (fall panicum; [12]) of 50%, a pest or weed control at 125 g/ha (fall panicum; [13]) of 20% and a pest or weed control at 8 g/ha (fall panicum; Panicum dichotomiflorum, post-emergence, postemergence, 8 g ai/ha, scale 0 to 100, 0 no effect, 100 complete control, read-out: Plant response rating, Panicum, Fall) of 10%. The pest or weed control at 16 g/ha (fall panicum; [14]) was 15%, the pest or weed control at 31 g/ha (Italian ryegrass; Lolium multiflorum, post-emergence, Postemergence, 31 g ai/ha, scale 0 to 100, read-out: Plant response rating, Ryegrass, Italian) was 10% and the pest or weed control at 62 g/ha (Italian ryegrass; [15]) was 10%. It also gave a pest or weed control at 125 g/ha (Italian ryegrass; [16]) of 40%, a pest or weed control at 8 g/ha (Italian ryegrass; Lolium multiflorum, post-emergence, postemergence, 8 g ai/ha, scale 0 to 100, 0 no effect, 100 complete control, read-out: Plant response rating, Ryegrass, Italian) of 0% and a pest or weed control at 16 g/ha (Italian ryegrass; [17]) of 5%. It also gave a pest or weed control at 31 g/ha (hairy beggarticks; [18]) of 60%, a pest or weed control at 62 g/ha (hairy beggarticks; [19]) of 70% and a pest or weed control at 125 g/ha (hairy beggarticks; [20]) of 95%. The pest or weed control at 8 g/ha (hairy beggarticks; Bidens pilosa, post-emergence, postemergence, 8 g ai/ha, scale 0 to 100, 0 no effect, 100 complete control, read-out: Plant response rating, Beggarticks) was 30%, the pest or weed control at 16 g/ha (hairy beggarticks; [21]) was 50% and the pest or weed control at 31 g/ha [1, 3] was 85%. The pest or weed control at 62 g/ha [1, 4] was 95%, the pest or weed control at 125 g/ha [1, 5] was 100% and the pest or weed control at 16 g/ha [1, 6] was 80%. For the same molecule, the “Plant response rating, Waterhemp_RES1” value [2, 3] was 80, the “Plant response rating, Waterhemp_RES1” value [2, 4] was 90 and the “Plant response rating, Waterhemp_RES1” value [2, 5] was 100. The “Plant response rating, Waterhemp_RES1” value ([2]; postemergence, 8 g ai/ha, scale 0 to 100, 0 no effect, 100 complete control) was 60, the “Plant response rating, Waterhemp_RES1” value [2, 6] was 75 and the pest or weed control at 31 g/ha (waterhemp; [22]) was 90%. The pest or weed control at 62 g/ha (waterhemp; [23]) was 95%, the pest or weed control at 125 g/ha (waterhemp; [24]) was 98% and the pest or weed control at 8 g/ha (waterhemp; Amaranthus tuberculatus, post-emergence, postemergence, 8 g ai/ha, scale 0 to 100, 0 no effect, 100 complete control, read-out: Plant response rating, Waterhemp) was 70%. The pest or weed control at 16 g/ha (waterhemp; [25]) was 95%.

For `N#Cc1cccc(Oc2ncc(F)cn2)c1-n1cc(C(F)(F)F)cn1` [Compound 79, 3-[(5-fluoro-2-pyrimidinyl)oxy]-2-[4-(trifluoromethyl)-1H-pyrazol-1-yl]benzonitrile], the pest or weed control at 31 g/ha (dayflower; [7]) was 30%, the pest or weed control at 62 g/ha (dayflower; [8]) was 50% and the pest or weed control at 125 g/ha (dayflower; [9]) was 50%. The pest or weed control at 16 g/ha (dayflower; [10]) was 10%, the pest or weed control at 31 g/ha (fall panicum; [11]) was 35% and the pest or weed control at 62 g/ha (fall panicum; [12]) was 30%. It also gave a pest or weed control at 125 g/ha (fall panicum; [13]) of 30%, a pest or weed control at 16 g/ha (fall panicum; [14]) of 20% and a pest or weed control at 62 g/ha (Italian ryegrass; [15]) of 0%. The pest or weed control at 125 g/ha (Italian ryegrass; [16]) was 0%, the pest or weed control at 16 g/ha (Italian ryegrass; [17]) was 0% and the pest or weed control at 31 g/ha (hairy beggarticks; [18]) was 50%. The pest or weed control at 62 g/ha (hairy beggarticks; [19]) was 75%, the pest or weed control at 125 g/ha (hairy beggarticks; [20]) was 80% and the pest or weed control at 16 g/ha (hairy beggarticks; [21]) was 40%. It also gave a pest or weed control at 31 g/ha [1, 3] of 80%, a pest or weed control at 62 g/ha [1, 4] of 90% and a pest or weed control at 125 g/ha [1, 5] of 95%. The pest or weed control at 16 g/ha [1, 6] was 75%, the “Plant response rating, Waterhemp_RES1” value [2, 3] was 60 and the “Plant response rating, Waterhemp_RES1” value [2, 4] was 75. The “Plant response rating, Waterhemp_RES1” value [2, 5] was 100, the “Plant response rating, Waterhemp_RES1” value [2, 6] was 40 and the pest or weed control at 31 g/ha (waterhemp; [22]) was 90%. The pest or weed control at 62 g/ha (waterhemp; [23]) was 85%, the pest or weed control at 125 g/ha (waterhemp; [24]) was 100% and the pest or weed control at 16 g/ha (waterhemp; [25]) was 70%.

— patent US9695155B2, “Herbicidal substituted pyrimidinyloxy benzene compounds” (E. I. DU PONT DE NEMOURS AND COMPANY, priority 2013, dated 2017)
